≈ marks a conversion by molar mass, not a printed value.
Assays:
[1] = test system: MCF7; assay: Cytotoxicity against human MCF7 cells after 24 hrs; assay type: functional, cell-based; details: MCF7, 24 h
[2] = test system: HT-29; assay: Cytotoxicity against human HT-29 cells after 24 hrs; assay type: functional, cell-based; details: HT-29, 24 h
[3] = target: Sigma non-opioid intracellular receptor 1 (Cavia porcellus, UniProt Q60492); assay: Displacement of [3H]-(+)pentazocine from sigma-1 receptor in guinea pig brain membranes after 180 mins by scintillation counting method; assay type: cell membranes, Membrane
[4] = target: T1, Sigma intracellular receptor 2 (Rattus norvegicus, UniProt Q5U3Y7); assay: Displacement of [3H]-DTG from sigma-2 receptor in rat liver membranes after 180 mins by scintillation counting method; assay type: cell membranes, Membrane
T1 sequence (Q5U3Y7 whole entry): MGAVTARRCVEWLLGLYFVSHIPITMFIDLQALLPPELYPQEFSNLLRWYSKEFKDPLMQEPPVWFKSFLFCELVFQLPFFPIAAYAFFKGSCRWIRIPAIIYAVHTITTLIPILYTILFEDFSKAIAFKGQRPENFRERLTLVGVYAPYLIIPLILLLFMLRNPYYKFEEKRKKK

[5] = target: Sodium-dependent serotonin transporter (Homo sapiens, UniProt P31645); assay type: cell-based, HEK293
[6] = target: Sodium-dependent noradrenaline transporter (Homo sapiens, UniProt P23975); assay: Inhibition of human NET expressed in MDCK cells assessed as decrease in [3H]-noradrenaline reuptake after 10 mins by scintillation counting method; assay type: cell-based
[7] = target: Sodium-dependent dopamine transporter (Homo sapiens, UniProt Q01959); assay: Inhibition of human DAT expressed in CHOK1 cells assessed as decrease in [3H]-dopamine reuptake after 10 mins by scintillation counting method; assay type: cell-based
[8] = target: E3 ubiquitin-protein ligase XIAP (Homo sapiens, UniProt P98170); assay: Inhibition of N-terminal His-tagged XIAP BIR3 domain (241 to 356 residues) (unknown origin) using fluorescein labeled SMAC peptide as substrate after 60 mins by TR-FRET assay
[9] = target: E3 ubiquitin-protein ligase XIAP (Homo sapiens, UniProt P98170, C202A/C213G); assay: Inhibition of N-terminal His-tagged XIAP BIR2-3 domain (125 to 356 residues) C202A/C213G mutant (unknown origin) using fluorescein labeled SMAC peptide as substrate after 60 mins by HTRF assay
[10] = test system: Escherichia coli; assay type: functional, C3000 ATCC 15597
[11] = test system: Staphylococcus aureus; assay type: functional
[12] = test system: Pseudomonas aeruginosa; assay type: functional, ATCC 10145
[13] = test system: Enterococcus faecalis; assay type: functional, ATCC 19433
[14] = target: T2, Protein Gpr81 (Rattus norvegicus, UniProt G3V906); assay: Agonist activity at rat GPR81 expressed in T-REx-CHO cells assessed as inhibition of forskolin-stimulated cAMP accumulation preincubated for 30 mins followed by forskolin stimulation and measured after 20 mins by TR-FRET assay; assay type: cell-based
T2 sequence (G3V906 whole entry): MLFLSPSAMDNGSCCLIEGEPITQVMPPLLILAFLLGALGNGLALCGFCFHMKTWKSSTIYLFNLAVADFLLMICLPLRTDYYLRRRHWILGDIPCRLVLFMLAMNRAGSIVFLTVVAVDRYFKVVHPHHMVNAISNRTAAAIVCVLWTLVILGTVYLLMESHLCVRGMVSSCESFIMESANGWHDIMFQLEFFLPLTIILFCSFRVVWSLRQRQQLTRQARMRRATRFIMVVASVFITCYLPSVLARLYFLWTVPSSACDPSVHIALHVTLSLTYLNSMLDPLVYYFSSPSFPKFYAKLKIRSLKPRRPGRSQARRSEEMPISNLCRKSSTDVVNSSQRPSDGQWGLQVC

[15] = target: Hydroxycarboxylic acid receptor 2 (Rattus norvegicus, UniProt Q80Z39); assay: Agonist activity at rat GPR109A expressed in T-REx-CHO cells assessed as inhibition of forskolin-stimulated cAMP accumulation preincubated for 30 mins followed by forskolin stimulation and measured after 20 mins by TR-FRET assay; assay type: functional, cell-based
[16] = Octanol-water distribution co-efficient, log D of the compound at pH 7.4; assay type: physicochemical
[17] = target: Chymotrypsinogen A (Bos taurus, UniProt P00766); assay: Inhibition of bovine alpha-chymotrypsin using succinyl Ala-Ala-Pro-Phe-p-nitroanilide as substrate after 1 hr by Dixon plot analysis
[18] = Selectivity ratio of Ki for sigma-2 receptor in rat liver membranes to Ki for sigma-1 receptor in guinea pig brain membranes; assay type: cell membranes
[19] = target: Angiotensin-converting enzyme (Homo sapiens, UniProt P12821); assay: Inhibition of human ACE using Hip-His-Leu-OH as substrate after 1 hr by fluorimetric method
[20] = target: Histone deacetylase 1 (Homo sapiens, UniProt Q13547); assay: Inhibition of human recombinant HDAC1 using Ac-Leu-Gly-Lys(Ac)-AMC as substrate preincubated for 30 mins followed by substrate addition and measured after 15 to 30 mins
[21] = target: Histone deacetylase 2 (Homo sapiens, UniProt Q92769)
Sequence of Histone deacetylase 2 (Q92769 whole entry): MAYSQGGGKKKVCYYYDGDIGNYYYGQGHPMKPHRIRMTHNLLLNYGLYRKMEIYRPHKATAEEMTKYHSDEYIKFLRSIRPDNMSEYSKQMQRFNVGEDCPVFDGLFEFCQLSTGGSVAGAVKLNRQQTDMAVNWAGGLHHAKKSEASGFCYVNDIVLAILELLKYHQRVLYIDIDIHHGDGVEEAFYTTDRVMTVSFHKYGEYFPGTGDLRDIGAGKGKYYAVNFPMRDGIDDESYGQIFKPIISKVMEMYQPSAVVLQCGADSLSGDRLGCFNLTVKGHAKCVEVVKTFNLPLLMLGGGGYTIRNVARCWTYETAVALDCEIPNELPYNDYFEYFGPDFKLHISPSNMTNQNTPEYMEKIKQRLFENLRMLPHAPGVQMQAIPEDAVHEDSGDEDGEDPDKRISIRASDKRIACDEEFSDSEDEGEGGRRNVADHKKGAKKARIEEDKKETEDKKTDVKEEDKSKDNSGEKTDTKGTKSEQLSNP

Sequence of Hydroxycarboxylic acid receptor 2 (Q80Z39 whole entry): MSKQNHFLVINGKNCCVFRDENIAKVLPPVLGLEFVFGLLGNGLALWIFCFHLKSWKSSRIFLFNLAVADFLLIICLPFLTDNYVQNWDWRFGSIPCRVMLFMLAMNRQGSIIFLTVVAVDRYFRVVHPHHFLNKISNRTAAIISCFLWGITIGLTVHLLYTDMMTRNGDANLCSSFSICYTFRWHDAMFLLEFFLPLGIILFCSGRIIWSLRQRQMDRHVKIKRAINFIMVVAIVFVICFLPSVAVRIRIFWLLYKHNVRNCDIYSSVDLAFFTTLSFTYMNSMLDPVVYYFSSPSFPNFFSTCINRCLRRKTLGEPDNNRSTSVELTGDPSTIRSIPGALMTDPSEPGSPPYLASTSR
Sequence of Sigma non-opioid intracellular receptor 1 (Q60492 whole entry): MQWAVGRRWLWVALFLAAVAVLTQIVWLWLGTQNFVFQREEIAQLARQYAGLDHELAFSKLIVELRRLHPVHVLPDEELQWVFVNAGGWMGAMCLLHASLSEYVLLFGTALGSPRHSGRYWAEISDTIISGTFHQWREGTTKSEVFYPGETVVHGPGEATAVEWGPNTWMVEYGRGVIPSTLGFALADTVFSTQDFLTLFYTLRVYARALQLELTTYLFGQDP
Sequence of Sodium-dependent dopamine transporter (Q01959 whole entry, the tested form may be a part): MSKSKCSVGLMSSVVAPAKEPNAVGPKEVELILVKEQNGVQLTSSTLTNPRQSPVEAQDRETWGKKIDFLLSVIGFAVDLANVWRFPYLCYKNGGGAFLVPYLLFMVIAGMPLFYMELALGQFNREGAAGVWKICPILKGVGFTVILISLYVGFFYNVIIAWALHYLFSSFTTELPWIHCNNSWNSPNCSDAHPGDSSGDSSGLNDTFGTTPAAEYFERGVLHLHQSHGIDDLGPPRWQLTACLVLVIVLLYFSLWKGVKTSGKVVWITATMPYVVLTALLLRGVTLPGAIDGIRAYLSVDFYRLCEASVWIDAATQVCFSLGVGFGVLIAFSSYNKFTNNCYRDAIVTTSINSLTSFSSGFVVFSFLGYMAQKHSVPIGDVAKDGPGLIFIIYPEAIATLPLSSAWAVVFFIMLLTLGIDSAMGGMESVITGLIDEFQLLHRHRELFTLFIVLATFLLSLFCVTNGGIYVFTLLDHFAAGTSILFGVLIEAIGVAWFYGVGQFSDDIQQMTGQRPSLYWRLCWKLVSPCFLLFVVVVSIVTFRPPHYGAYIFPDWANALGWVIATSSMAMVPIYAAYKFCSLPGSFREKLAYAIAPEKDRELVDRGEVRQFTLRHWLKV
Sequence of E3 ubiquitin-protein ligase XIAP (Homo sapiens, UniProt P98170) (P98170 whole entry, the tested form may be a part): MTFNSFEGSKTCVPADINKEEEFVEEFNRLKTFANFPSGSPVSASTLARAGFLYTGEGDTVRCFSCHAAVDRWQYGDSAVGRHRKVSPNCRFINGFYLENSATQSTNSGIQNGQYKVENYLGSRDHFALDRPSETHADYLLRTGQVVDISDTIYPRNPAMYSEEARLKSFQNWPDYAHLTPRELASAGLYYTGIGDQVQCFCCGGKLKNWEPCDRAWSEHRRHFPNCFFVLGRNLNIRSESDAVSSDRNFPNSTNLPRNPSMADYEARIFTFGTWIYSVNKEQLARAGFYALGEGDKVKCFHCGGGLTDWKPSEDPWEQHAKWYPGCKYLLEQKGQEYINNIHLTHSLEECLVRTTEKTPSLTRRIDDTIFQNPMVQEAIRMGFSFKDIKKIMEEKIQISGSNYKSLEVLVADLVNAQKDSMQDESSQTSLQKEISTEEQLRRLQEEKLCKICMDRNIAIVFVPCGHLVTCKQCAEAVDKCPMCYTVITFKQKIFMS
Sequence of Histone deacetylase 1 (Q13547 whole entry): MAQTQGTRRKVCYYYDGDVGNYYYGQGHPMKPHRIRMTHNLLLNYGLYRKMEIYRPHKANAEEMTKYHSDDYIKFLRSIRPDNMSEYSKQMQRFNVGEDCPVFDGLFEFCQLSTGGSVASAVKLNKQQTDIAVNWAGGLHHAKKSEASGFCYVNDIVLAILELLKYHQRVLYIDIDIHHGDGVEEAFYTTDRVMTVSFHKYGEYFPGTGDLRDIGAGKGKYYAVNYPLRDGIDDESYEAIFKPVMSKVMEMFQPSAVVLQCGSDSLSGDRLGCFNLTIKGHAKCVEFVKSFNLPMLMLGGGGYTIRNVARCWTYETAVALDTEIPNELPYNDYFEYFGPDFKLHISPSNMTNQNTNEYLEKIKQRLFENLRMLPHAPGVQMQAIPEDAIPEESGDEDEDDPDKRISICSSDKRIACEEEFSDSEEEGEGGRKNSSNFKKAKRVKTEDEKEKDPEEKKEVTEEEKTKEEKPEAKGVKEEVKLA
Sequence of Angiotensin-converting enzyme (P12821 whole entry): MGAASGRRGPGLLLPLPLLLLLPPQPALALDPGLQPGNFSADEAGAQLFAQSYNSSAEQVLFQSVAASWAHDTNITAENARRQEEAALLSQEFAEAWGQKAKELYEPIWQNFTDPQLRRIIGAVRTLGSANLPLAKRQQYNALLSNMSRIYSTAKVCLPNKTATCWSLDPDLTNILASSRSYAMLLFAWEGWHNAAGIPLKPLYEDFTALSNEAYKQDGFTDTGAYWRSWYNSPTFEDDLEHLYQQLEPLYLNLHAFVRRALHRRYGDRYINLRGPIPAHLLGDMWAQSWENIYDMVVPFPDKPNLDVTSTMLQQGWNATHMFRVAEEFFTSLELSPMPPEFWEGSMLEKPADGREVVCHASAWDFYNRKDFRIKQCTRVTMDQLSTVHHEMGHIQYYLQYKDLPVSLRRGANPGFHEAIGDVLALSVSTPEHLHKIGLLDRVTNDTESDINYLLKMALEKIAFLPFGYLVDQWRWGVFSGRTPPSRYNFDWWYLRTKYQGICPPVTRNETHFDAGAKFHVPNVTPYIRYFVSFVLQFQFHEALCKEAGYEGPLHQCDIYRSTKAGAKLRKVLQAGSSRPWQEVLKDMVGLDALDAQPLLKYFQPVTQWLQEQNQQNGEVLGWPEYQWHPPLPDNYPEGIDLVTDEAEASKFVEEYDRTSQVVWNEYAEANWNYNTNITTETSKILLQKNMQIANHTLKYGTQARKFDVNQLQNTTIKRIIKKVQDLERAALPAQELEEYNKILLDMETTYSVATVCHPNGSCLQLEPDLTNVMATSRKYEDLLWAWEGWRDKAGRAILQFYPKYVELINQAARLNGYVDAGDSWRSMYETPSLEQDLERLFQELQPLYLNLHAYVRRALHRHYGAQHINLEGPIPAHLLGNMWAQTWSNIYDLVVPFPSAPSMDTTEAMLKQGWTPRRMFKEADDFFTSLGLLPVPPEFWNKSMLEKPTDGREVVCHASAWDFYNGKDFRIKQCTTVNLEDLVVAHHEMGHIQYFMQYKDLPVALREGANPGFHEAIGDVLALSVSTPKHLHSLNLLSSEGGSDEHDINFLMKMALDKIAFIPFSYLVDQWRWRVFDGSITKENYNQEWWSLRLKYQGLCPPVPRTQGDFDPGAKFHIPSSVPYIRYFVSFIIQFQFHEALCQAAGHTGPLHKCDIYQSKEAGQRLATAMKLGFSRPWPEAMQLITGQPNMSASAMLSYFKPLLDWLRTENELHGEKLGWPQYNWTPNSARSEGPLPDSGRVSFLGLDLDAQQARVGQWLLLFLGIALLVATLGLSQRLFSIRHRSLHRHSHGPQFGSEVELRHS
Sequence of E3 ubiquitin-protein ligase XIAP (Homo sapiens, UniProt P98170, C202A/C213G) (P98170 whole entry C202A/C213G, the tested form may be a part): as the sequence (P98170 whole entry, the tested form may be a part) above, with C202A, C213G counted along it
Sequence of Sodium-dependent noradrenaline transporter (P23975 whole entry): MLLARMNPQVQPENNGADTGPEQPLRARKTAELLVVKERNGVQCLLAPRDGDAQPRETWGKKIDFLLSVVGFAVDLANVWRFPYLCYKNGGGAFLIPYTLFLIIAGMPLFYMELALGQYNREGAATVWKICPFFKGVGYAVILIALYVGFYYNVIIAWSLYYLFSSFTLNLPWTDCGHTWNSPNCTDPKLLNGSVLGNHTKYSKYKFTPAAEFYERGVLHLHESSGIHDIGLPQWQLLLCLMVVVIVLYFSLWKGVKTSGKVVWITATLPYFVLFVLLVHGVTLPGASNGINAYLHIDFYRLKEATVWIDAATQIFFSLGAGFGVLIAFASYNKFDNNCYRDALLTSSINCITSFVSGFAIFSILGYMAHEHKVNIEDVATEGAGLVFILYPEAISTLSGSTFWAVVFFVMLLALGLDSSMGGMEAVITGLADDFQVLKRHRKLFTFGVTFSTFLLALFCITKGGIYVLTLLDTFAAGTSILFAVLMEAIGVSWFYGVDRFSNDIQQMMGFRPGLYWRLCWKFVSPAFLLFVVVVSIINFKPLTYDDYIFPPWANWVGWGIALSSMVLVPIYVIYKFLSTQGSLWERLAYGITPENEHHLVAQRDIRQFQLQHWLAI

SMILES: COC(=O)/C(=N/NC(=O)c1ccc(CO[Si](C)(C)C(C)(C)C)o1)c1ccccc1
- IC50 [1]: 13.3 µg/mL (≈ 31.9 µM)

SMILES: CC(C)OC(=O)/C(=N/NC(=O)c1ccc(CO[Si](C)(C)C(C)(C)C)o1)c1ccccc1
- IC50 [2]: 6.4 µg/mL (≈ 14.4 µM)
- IC50 [1]: 3.6 µg/mL (≈ 8.1 µM)

SMILES: COc1ccc(CN2CC[Si]3(CCCc4ccccc43)CC2)cc1
- Ki [3]: 0.0027 µM
- Ki [4]: 0.46 µM

SMILES: COc1ccc(C(CN(C)C)[Si]2(O)CCCC2)cc1 (racemic)
- IC50 [5]: 0.904 µM
- IC50 [6]: 0.275 µM
- IC50 [7]: 0.707 µM

SMILES: CN[C@@H](C)C(=O)N[C@@H](Cc1ccc(C#CC(=O)N[C@H]2C[C@@H](C(=O)N[C@@H]3CCCc4ccccc43)N(C(=O)[C@@H](NC(=O)[C@H](C)NC)C(C)(C)C)C2)cc1)C(=O)N1C[Si](C)(C)C[C@H]1C(=O)N[C@@H]1CCCc2ccccc21
- IC50 [8]: 0.003 µM
- IC50 [9]: 0.004 µM

SMILES: CC(C)(C)O [TERT-BUTANOL]
- MLC [10]: 13.54%
- MLC [11]: 10.61%
- MLC [12]: 9.79%
- MLC [13]: 13.33%

SMILES: CCOc1cc(Cl)c(C(=O)NC(=O)Nc2nc3c(s2)CCCC3)cc1N1CCOCC1
- EC50 [14]: 0.24 µM
- EC50 [15]: 2.1 µM
- logD [16]: 4.2

SMILES: C[C@H](C[Si](O)(O)[C@H](Cc1ccccc1)NC(=O)[C@@H]1CCCN1)C(N)=O
- Ki [17]: 0.107 µM

SMILES: c1ccc(CN2CCC3(CCCc4ccccc43)CC2)cc1
- Ki [3]: 0.002 µM
- Ki [4]: 0.044 µM

SMILES: c1ccc(CCN2CCC3(CCCc4ccccc43)CC2)cc1
- Ki [3]: 0.008 µM
- Ki [4]: 0.034 µM

SMILES: CC(C)(O)c1ccccc1
- MLC [10]: 0.96%
- MLC [11]: 0.78%
- MLC [12]: 0.71%
- MLC [13]: 0.93%

SMILES: c1ccc(CN2CC[Si]3(CCCc4ccccc43)CC2)cc1
- Ki [3]: 0.0011 µM
- Ki [4]: 0.243 µM
- Ratio Ki [18]: 221

SMILES: CCOc1cc(Cl)c(C(=O)NC(=O)Nc2nc3c(s2)C[Si](C)(c2ccc(OC)cc2)CC3)cc1N1CCOCC1 (centres undefined)
- EC50 [14]: 1 µM
- EC50 [15]: 1.2 µM
- logD [16]: 4.8

SMILES: CCC(C)(C)O [AMYLENE HYDRATE]
- MLC [10]: 5.09%
- MLC [11]: 4.17%
- MLC [12]: 3.96%
- MLC [13]: 5.67%

SMILES: c1ccc(CCN2CC[Si]3(CCCc4ccccc43)CC2)cc1
- Ki [3]: 0.0029 µM
- Ki [4]: 0.039 µM

SMILES: C[Si](C)(O)c1ccccc1
- MLC [10]: 0.27%
- MLC [11]: 0.26%
- MLC [12]: 0.35%
- MLC [13]: 0.42%

SMILES: CCOc1cc(Cl)c(C(=O)NC(=O)Nc2nc3c(s2)C[Si](C)(c2c(OC)cccc2OC)CC3)cc1N1CCOCC1 (centres undefined)
- EC50 [14]: 1.2 µM
- EC50 [15]: 1.3 µM
- logD [16]: 4.6

SMILES: COc1ccc(CN2CCC3(CCCc4ccccc43)CC2)cc1
- Ki [3]: 0.0038 µM
- Ki [4]: 0.206 µM

SMILES: C=C[Si](C)(C)O
- MLC [10]: 1.23%
- MLC [11]: 1.04%
- MLC [12]: 1%
- MLC [13]: 1.32%

SMILES: C=CC(C)(C)O
- MLC [10]: 5.23%
- MLC [11]: 4.37%
- MLC [12]: 3.67%
- MLC [13]: 5.63%

SMILES: CC[Si](C)(C)O
- MLC [10]: 1.04%
- MLC [11]: 0.8%
- MLC [12]: 0.87%
- MLC [13]: 1.14%

SMILES: C[C@H](CS)C(=O)N1C[Si](C)(C)C[C@H]1C(=O)O
- IC50 [19]: 0.043 µM

SMILES: CC(C)CCN1CC[Si]2(CCCc3ccccc32)CC1
- Ki [3]: 0.0003 µM
- Ki [4]: 0.019 µM
- Ratio Ki [18]: 63

SMILES: CCOC(=O)/C(=N/NC(=O)c1ccc(CO[Si](C)(C)C(C)(C)C)o1)c1ccccc1
- IC50 [2]: 8.6 µg/mL (≈ 20 µM)
- IC50 [1]: 13.3 µg/mL (≈ 30.9 µM)

SMILES: CC(C)CCN1CCC2(CCCc3ccccc32)CC1
- Ki [3]: 0.0018 µM
- Ki [4]: 0.0055 µM

SMILES: C[Si](O)(O)CCCCCCC(=O)Nc1ccccc1
- IC50 [20]: 2.7 µM
- IC50 [21]: 6.3 µM
